Experiments:
HL-60 = assay: Tested for the ability to traverse cell membranes and to alter ratio of AdoMet to S-adenosyl-homocysteine (AdoHcy) in HL60 human promyelocytic leukemia cells; type: functional, cell-based
Trypanosoma brucei = assay: Tested for antitrypanosomal activity against blood forms of Trypanosoma uM concentration; type: functional
HT-29 = assay: Tested for the ability to traverse cell membranes and to alter ratio of AdoMet to S-adenosyl-homocysteine (AdoHcy) in HT-29 human colon carcinoma; IA means inactive; type: functional, cell-based
L1210 = assay: Tested for the ability to traverse cell membranes and to alter ratio of AdoMet to S-adenosyl-homocysteine (AdoHcy) in L1210 murine lymphocytic leukemia cells; IA means inactive; type: functional, cell-based, Mus musculus

| Compound | IC50 (HL-60) [mM] | IC50 (HT-29) | IC50 (L1210) | Inhibition (Trypanosoma brucei) [%] |
| --- | --- | --- | --- | --- |
| C[S+](C[C@H]1O[C@@H](n2cnc3c(N)ncnc32)[C@H](O)[C@@H]1O)C1C=C[C@H](N)C1.O=S(=O)(O)O.O=S(=O)([O-])O (stereo partly drawn) |  | Not Active | Not Active | 50 |
| C[S+](C[C@H]1O[C@@H](n2cnc3c(N)ncnc32)[C@H](O)[C@@H]1O)C1CCNC1.O=S(=O)(O)O.O=S(=O)([O-])O (stereo partly drawn) |  |  |  | 49 |
| Nc1ncnc2c1ncn2[C@@H]1O[C@H](CSC2CCNC2)[C@@H](O)[C@H]1O.O=S(=O)(O)O (stereo partly drawn) |  |  |  | 40 |
| Nc1ncnc2c1ncn2[C@@H]1O[C@H](CS[C@H]2CN[C@H](C(=O)O)C2)[C@@H](O)[C@H]1O.O=S(=O)(O)O | > 1 |  |  | 41 |

Second part, led by results:

| IC50 (HL-60) [mM] | IC50 (HT-29) | IC50 (L1210) | Compound | Inhibition (Trypanosoma brucei) [%] |
| --- | --- | --- | --- | --- |
| > 1 |  |  | C[S+](C[C@H]1O[C@@H](n2cnc3c(N)ncnc32)[C@H](O)[C@@H]1O)[C@H]1CN[C@H](C(=O)O)C1.O=S(=O)(O)O.O=S(=O)([O-])O (stereo partly drawn) | 34 |
| > 1 |  |  | C[S+](C[C@H]1O[C@@H](n2cnc3c(N)ncnc32)[C@H](O)[C@@H]1O)C1CN[C@H](C(=O)O)C1.O=S(=O)(O)O.O=S(=O)([O-])O (stereo partly drawn) | 64 |
| > 1 |  |  | Nc1ncnc2c1ncn2[C@@H]1O[C@H](CS[C@@H]2CN[C@H](C(=O)O)C2)[C@@H](O)[C@H]1O.O=S(=O)(O)O | 30 |

— ChEMBL document CHEMBL1127176, “Restricted rotation analogs of S-adenosylmethionine: synthesis, evaluation as inhibitors of S-adenosylmethionine decarboxylase, and potential use as selective antitrypanosomal agents” (Bioorg Med Chem Lett, 1993)
